Test results taken from US7300546B2, “Cellulose fiber having improved biostability and the resulting products” (Weyerhaeuser Company, priority 2000, dated 2007).

Test system: cellulose fungal decay
Test: Inground testing of cement-treated pulp sheets, subjective visual rating for deterioration (biodurability)
Design: species or system fungi
Conditions: for biological protection: summary statement in Example 2
Description: Samples for testing were prepared by obtaining unbleached mixed conifer kraft pulp sheets produced in an interior British Columbia mill. […] Solutions of various biocides were made up so that the desired ultimate concentration of active material would be obtained by spraying each sample portion of pulp sheet with about 1 g of the biocidal solution per gram of pulp. […] Subsequently the treated sheets were reslurried in water having a pH ˜12 obtained from a cement board manufacturing facility and refined to a Canadian Standard Freeness (CSF) level of 450 mL. All refining was done in a pilot scale Model 202 Claflin refiner (available from Bolton-Emerson, Inc., Lawrence, Mass.). The treated and refined pulp was dewatered by centrifuging to a consistency of about 30% and then pin fluffed to ensure uniformity.
Treatments included copper sulfate at concentrations of 0.1, 0.3, and 0.5% Cu w/w based on dry pulp; zinc sulfate at concentrations of 0.1%, 0.3%, and 0.6% Zn; 0.2% propiconazole emulsion; didecyldimethylammonium chloride (DDAC) 0.2%, 0.5%; and 1.0%, and 1.0% DDAB. Treated fibers were also made using 1.0% DDAC with 0.05%, 0.10%, and 0.2% Cu added as copper sulfate. All concentrations are on a weight/weight basis.
Samples of 30 g of the treated pulps were reslurried in water and formed into sheets in an 8×8 inch (203×203 mm) sheet. The sheets were pressed to remove excess moisture then air dried. Each sheet was then cut in half and dipped for 30 seconds in a slurry of one part Portland cement in three parts by weight water. The coated and impregnated sheets were removed and drained, allowed to cure for two days wet, and then air dried. Each 4×8 inch ([…] mm) cement treated sheet was then enclosed in a 20 mesh stainless steel screen and half buried in the ground at a test site at Hilo, Hi. Samples were then removed after three month, six month, nine month, and twelve month periods for examination. Exposed sheets were assigned a subjective rating for deterioration based on visual observation (3=sound and 0=complete deterioration). The exposed sheets were also examined microscopically to determine the presence of fungal mycelium and cell wall deterioration. […] 1

SMILES: CCCCCCCCCC[N+](C)(C)CCCCCCCCCC.[Br-] [DDAB, didecyldimethylammonium bromide]
- below ground protection (DDAB at 1% (lower concentrations not tested)): effective below ground protection

SMILES: CCCCCCCCCC[N+](C)(C)CCCCCCCCCC.[Cl-] [DDAC, didecyldimethylammonium chloride]
- below ground protection (DDAC at 0.5% or greater): effective below ground protection

SMILES: O=S(=O)([O-])[O-].[Zn+2] [Zinc compounds, zinc sulfate]
- decay protection (at any concentration tested): did not give effective decay protection
- biological protection: poor

SMILES: O=S(=O)([O-])[O-].[Cu+2] [copper, copper sulfate]
- reducing cellulose fungal decay (after the one year underground tests): effective in reducing cellulose fungal decay
- below ground protection (copper at concentrations of 0.3% or greater): effective below ground protection

SMILES: CCCC1COC(Cn2cncn2)(c2ccc(Cl)cc2Cl)O1 (centres unmarked) [propiconazole]
- decay protection (at 0.2%): did not give effective decay protection
- biological protection: poor
